How the values were obtained:
[1] = tested on: excitatory synapses onto CA1 hippocampal interneurons; assay: Drug-induced depression of EPSC amplitudes, whole-cell recording in hippocampal slices; format: cell-based, rat
Source text: (§1) The basic methods have been detailed previously (McMahon and Kauer, 1997). Sprague-Dawley rats (15-22 days old) were used in the majority of experiments. In addition, we used TRPV1^−/− mice (Caterina et al., 2000) and wild-type C57BL/6 mice aged between 15 and 21 days (Jackson Laboratory). The TRPV1^−/− mice we used have been backcrossed at least 10 times onto a C57BL/6 background and were obtained from homozygous breeding pairs. Control mice were therefore not littermates but were age-matched, wild-type C57BL/6 animals received from the same supplier in the same shipment. All animal protocols were approved by the Brown University Institutional Animal Care and Use Committee. For mouse experiments, only one brain slice per mouse was used for each experiment, so that reported ‘n’ numbers represent the number of animals. Animals were anaesthetized using halothane or isoflurane and quickly decapitated. The brain was rapidly removed and 300 μm thick coronal slices prepared and stored for at least one hour submerged on a net in artificial cerebrospinal fluid (ACSF) containing in mM: 119 NaCl, 26 NaHCO3, 2.5 KCl, 1.0 NaH2PO4, 2.5 CaCl2, 1.3 MgSO4 and 11 dextrose, saturated with 95% O2/5% CO2 (pH 7.4). Slices were then transferred to a submerged recording chamber and bathed in oxygenated ACSF (28-32° C.) containing elevated divalent cations to reduce epileptiform activity (4 mM CaCl2 and 4 mM MgCl2, replacing MgSO4). A surgical cut was made between the CA3 and CA1 regions. The storage of slices submerged on a net rather than in an interface chamber on filter paper may be important in maintaining slice health and improving the likelihood of observing LTD.
(§2) Slices were continuously perfused with ACSF warmed to 28-32° C. at a flow rate of 1-2 ml/min. Picrotoxin (100 μM) and D-AP5 (50 μM) were added to block GABAA receptor- and NMDAR-mediated synaptic transmission. Whole-cell patch clamp recordings were made from interneurons identified visually in the CA1 stratum radiatum of the hippocampus. […] Patch pipettes were filled with internal recording solution containing in mM: 117 cesium gluconate, 2.8 NaCl, 5 MgCl2, 20 HEPES, 2 ATP-Na^+, 0.3 GTP-Na^+ and 0.6 EGTA. In some experiments 2 μM capsazepine, 140 nM baicalein, or 250 μM GDPβS were also included in the intracellular patch pipette solution. In experiments with BAPTA-containing patch electrodes, EGTA was omitted from the intracellular solution and 25 or 40 mM BAPTA replaced a corresponding amount of cesium gluconate. EPSCs were stimulated at 0.1 Hz (100 μsec) using a bipolar stainless steel stimulating electrode placed in stratum radiatum at least 200 μm from the recorded cell. CA1 interneurons were voltage clamped at −65 mV (not corrected for the liquid junction potential, of ˜10 mV), and EPSCs were evoked by paired pulses with an interval of 50 msec (stimulus intensity typically 50-400 μA). In early experiments, we measured rectification ratios of EPSCs evoked at +40 mV/−60 mV in the presence of 50 μM D-AP5, measured at the time of peak inward synaptic current seen at −70 mV (Lei and McBain, 2004).
The maximal initial slope of fEPSPs was calculated using a LabVIEW-based program (National Instruments). The peak amplitude of each EPSC was measured by comparing a 10 msec time period immediately prior to the stimulus with the peak of the EPSC using this program as well. Occasionally polysynaptic responses were evoked, and in these cases, only the initial monosynaptic event was measured. To positively identify LTD, EPSCs measured every 10 seconds were averaged in 1 minute intervals. EPSC amplitude values were normalized to control pre-HFS EPSC amplitude values (baseline period of at least 5 minutes prior to HFS) and subjected to analysis of variance (ANOVA) repeated measures analysis with a post-hoc Dunnett's test (GraphPad Prism, Version 4).

[2] = tested on: excitatory synapses onto CA1 hippocampal interneurons; assay: Synaptic failure analysis using minimal stimulation; format: cell-based, rat; conditions: capsaicin 1 μM; pre-capsaicin 38.4±3.5%; n=5
Experimental: as §2, with “CA1 interneurons were voltage clamped at −65 mV (not corrected for the liquid junction potential, of ˜10 mV), and EPSCs were evoked by paired pulses with an interval of 50 msec (stimulus intensity typically 50-400 μA).” left out

TRPV1 receptors = target: T1, TRPV1 receptors (Rattus norvegicus, UniProt O35433); assay: Capsaicin-evoked inward current (peak change in holding current) in hippocampal neurons; format: cell-based
T1 construct: inward currents were elicited in both CA3 and CA1 pyramidal cells; from tissue; host or cells: acute coronal hippocampal slices: CA1 and CA3 pyramidal cells and CA1 stratum radiatum interneurons
Experimental: as §2
The maximal initial slope of fEPSPs was calculated using a LabVIEW-based program (National Instruments). The peak amplitude of each EPSC was measured by comparing a 10 msec time period immediately prior to the stimulus with the peak of the EPSC using this program as well. Occasionally polysynaptic responses were evoked, and in these cases, only the initial monosynaptic event was measured. To positively identify LTD, EPSCs measured every 10 seconds were averaged in 1 minute intervals. EPSC amplitude values were normalized to control pre-HFS EPSC amplitude values (baseline period of at least 5 minutes prior to HFS) and subjected to analysis of variance (ANOVA) repeated measures analysis with a post-hoc Dunnett's test (GraphPad Prism, Version 4). […] EPSC amplitude values 15 to 20 minutes post-HFS were compared between control LTD experiments and those carried out either in transgenic TRPV1^−/− mice, or in the presence of drug using a t-test (unpaired, two-tailed, with Welch's correction if the variances between the groups were unequal). To calculate the effects of capsaicin, 12-(S)-HPETE or WIN 55,212-2 application on basal excitatory glutamatergic transmission, normalized EPSC amplitudes or fEPSP slopes were averaged in the final 5 minutes of drug application and compared with EPSCs/EPSPs 5 minutes prior to drug application. […] The n-values reported refer to the number of slices. All combined data are expressed as mean±the standard error of the mean (s.e.m.).

TRPV1 channels = target: T2, TRPV1 channels (Mus musculus, UniProt Q704Y3); assay: TRPV1 agonist-evoked inward current and depolarization in CA1 pyramidal neurons; format: cell-based
T2 construct: whole-cell recordings from acutely prepared brain slices from wild type C57BL/6 mice; from tissue; host or cells: acute coronal hippocampal slices from P14-P20 wild-type C57BL/6 mice: CA1 pyramidal neurons

[3] = tested on: excitatory synapses onto CA1 hippocampal interneurons; assay: HFS-induced long-term depression (LTD) of EPSCs, whole-cell recording in hippocampal slices; format: cell-based, rat
Source text: as §1, §2
High-frequency stimulation was used to induce LTD (HFS; two 1 sec trains at 100 Hz, inter-train interval 20 sec, at 1.5 times test current intensity) with the neuron held in current-clamp mode, so that the HFS trains were delivered with the membrane potential free to vary. Receptor antagonists were added directly to the ACSF at known concentrations for at least 10 minutes prior to HFS. Control experiments were interleaved with those experiments using receptor antagonists or involving slices from TRPVl^−/− mice. The cell input resistance and series resistance were monitored throughout each experiment; cells were discarded if these values changed by more than 10% during the experiment.

[4] = capsaicin 3 μM, capsazepine 10 μM, n=5

T2 sequence (Q704Y3 whole entry): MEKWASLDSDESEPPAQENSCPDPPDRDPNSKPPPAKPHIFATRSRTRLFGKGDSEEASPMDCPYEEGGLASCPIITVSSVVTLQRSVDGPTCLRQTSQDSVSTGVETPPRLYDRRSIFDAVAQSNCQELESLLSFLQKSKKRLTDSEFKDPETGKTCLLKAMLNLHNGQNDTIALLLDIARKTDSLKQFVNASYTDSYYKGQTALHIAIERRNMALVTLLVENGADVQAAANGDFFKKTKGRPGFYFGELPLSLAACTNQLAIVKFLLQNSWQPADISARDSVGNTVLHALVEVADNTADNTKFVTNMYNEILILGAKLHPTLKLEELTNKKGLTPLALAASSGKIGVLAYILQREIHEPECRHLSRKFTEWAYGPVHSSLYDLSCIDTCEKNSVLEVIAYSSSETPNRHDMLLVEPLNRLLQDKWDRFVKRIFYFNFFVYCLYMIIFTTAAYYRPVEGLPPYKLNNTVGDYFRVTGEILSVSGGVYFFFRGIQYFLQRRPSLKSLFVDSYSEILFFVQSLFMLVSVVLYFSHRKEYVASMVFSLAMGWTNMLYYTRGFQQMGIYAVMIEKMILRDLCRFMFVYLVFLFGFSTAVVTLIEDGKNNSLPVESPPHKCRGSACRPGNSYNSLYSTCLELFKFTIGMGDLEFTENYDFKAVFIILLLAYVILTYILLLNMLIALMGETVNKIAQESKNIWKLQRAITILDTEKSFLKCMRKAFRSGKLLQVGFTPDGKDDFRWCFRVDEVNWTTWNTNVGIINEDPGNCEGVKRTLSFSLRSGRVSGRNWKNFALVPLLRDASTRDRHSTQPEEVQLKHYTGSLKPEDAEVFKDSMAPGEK
T1 sequence (O35433 whole entry): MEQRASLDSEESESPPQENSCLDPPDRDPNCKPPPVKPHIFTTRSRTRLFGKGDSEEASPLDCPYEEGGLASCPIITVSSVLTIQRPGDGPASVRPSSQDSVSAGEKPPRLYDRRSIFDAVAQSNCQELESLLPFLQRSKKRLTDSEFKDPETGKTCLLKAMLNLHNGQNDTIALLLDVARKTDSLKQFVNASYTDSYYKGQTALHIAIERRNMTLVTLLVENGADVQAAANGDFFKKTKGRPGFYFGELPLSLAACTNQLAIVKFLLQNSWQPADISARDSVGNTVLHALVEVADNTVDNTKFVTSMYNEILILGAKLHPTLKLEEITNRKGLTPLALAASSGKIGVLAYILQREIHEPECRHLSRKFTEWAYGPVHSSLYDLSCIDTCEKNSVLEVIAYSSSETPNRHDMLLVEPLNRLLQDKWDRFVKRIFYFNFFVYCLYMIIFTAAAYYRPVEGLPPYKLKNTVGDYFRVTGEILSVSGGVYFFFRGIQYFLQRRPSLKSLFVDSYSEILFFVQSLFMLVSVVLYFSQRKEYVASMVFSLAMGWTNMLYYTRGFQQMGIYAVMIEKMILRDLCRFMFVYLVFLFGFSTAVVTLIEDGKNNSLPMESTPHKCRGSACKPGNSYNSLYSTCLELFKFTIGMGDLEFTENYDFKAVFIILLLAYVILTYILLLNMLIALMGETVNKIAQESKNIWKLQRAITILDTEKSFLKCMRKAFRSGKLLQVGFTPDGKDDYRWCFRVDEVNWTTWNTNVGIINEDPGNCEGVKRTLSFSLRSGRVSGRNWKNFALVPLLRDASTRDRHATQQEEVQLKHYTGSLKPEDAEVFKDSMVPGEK

1 μM capsaicin response in interneurons (TRPV1 receptors; 1 μM capsaicin, P=0.78 vs pre-drug, n=5) [pA] | peak capsaicin response in CA3 pyramidal cells (inward current) (TRPV1 receptors; 3 μM capsaicin bath application, n=5) [pA] | peak capsaicin response in CA1 pyramidal cells (inward current) (TRPV1 receptors; 3 μM capsaicin bath application, n=7) [pA] | peak capsaicin response in interneurons (inward current) (TRPV1 receptors; 3 μM capsaicin, CA1 stratum radiatum interneurons, n=5) [pA] | capsaicin-evoked current in a CA1 neuron (TRPV1 channels; capsaicin 3 μM bath-applied) | effect on membrane potential of CA1 pyramidal neurons (TRPV1 channels; capsaicin 3 μM bath-applied, current-clamp) | Peak capsaicin response in the presence of capsazepine in CA1 interneurons (TRPV1 receptors; capsaicin 3 μM, capsazepine 10 μM, P=0.06, n=5) [pA] | Peak capsaicin response in the presence of capsazepine in CA1 pyramidal cells (TRPV1 receptors; [4]) [pA] | Peak capsaicin response in the presence of capsazepine in CA3 pyramidal cells (TRPV1 receptors; [4]) [pA] | effect on capsaicin-induced depolarization of CA1 pyramidal neurons (TRPV1 channels; 2 μM intracellular capsazepine, capsaicin 3 μM, p<0.001) | capsaicin-evoked current in the presence of capsazepine (TRPV1 channels; capsaicin 3 μM plus capsazepine 10 μM) | effect on 12-(S)-HPETE-evoked inward current (TRPV1 channels; capsazepine 10 μM, 12-(S)-HPETE 100 nM) | Structure (SMILES) | EPSC amplitudes after 10-15 minutes in capsaicin ([1]; capsaicin 1 μM bath-applied, n=14) | average synaptic failures in capsaicin [2] [%] | EPSC amplitudes 15-20 minutes post-HFS ([3]; HFS after capsaicin 1 μM exposure (occlusion), n=10) | EPSC amplitudes after 10-15 minutes in 1 μM capsaicin and in the presence of intracellular capsazepine ([1]; capsazepine 2 μM in patch pipette, capsaicin 1 μM bath, n=6) | EPSC amplitudes after 10-15 minutes in 12-(S)-HPETE and in the presence of capsazepine ([1]; capsazepine 10 μM, 12-(S)-HPETE 100 nM, n=6) | EPSC amplitudes 10-15 minutes after adding capsazepine ([3]; 10 μM capsazepine added 10 minutes after HFS (LTD maintenance), n=6) | EPSC amplitudes 15-20 minutes post-HFS with intracellular capsazepine ([3]; capsazepine 2 μM in patch pipette, P=0.20 vs control LTD, n=7) | EPSC amplitudes 15-20 minutes post-HFS in capsazepine ([3]; capsazepine 10 μM bath applied prior to HFS, n=9)
0.7±0.3 | 180.1±48.0 | 160.1±55.3 | 41.6±16.2 | induces inward current | significantly depolarized | – | – | – | – | – | – | COc1cc(CNC(=O)CCCCC=CC(C)C)ccc1O [capsaicin, 8-methyl-N-vanillyl-6-nonenamide] | 73.3±4.6 % of pre-drug control values | 73.5±7.8 | 112.5±21.9 % of control values in capsaicin before HFS | – | – | – | – | –
– | – | – | – | – | – | 0.4±0.2 | 0.1±0.1 | 0.1±0.1 | prevented | does not induce current | blocked | Oc1cc2c(cc1O)CN(C(=S)NCCc1ccc(Cl)cc1)CCC2 [capsazepine] | – | – | – | 46.8±10.3 % of pre-capsaicin control values | 103.0±8.9 % of pre-12-(S)-HPETE control values | 50.1±6.1 % of pre-HFS values | 47.5±10.3 % of control values before HFS | 105.6±8.6 % of control values before HFS
